Data from publication PMC9382192, “Combined treatment with epigenetic agents enhances anti-tumor activity of MAGE-D4 peptide-specific T cells by upregulating the MAGE-D4 expression in glioma” (Frontiers in Oncology, 2022).

Assays:
Format in all cases: cell-based, human
U87 = assay: LDH cytotoxicity assay, U87; conditions: TSA-treated U87, E:T 50:1, 4 h; compared to T cell alone and NC-T cell groups
Description: The human glioma cell lines (U87-MG and U251) were obtained from the Cell Bank of Type Culture Collection of the Chinese Academy of Science (Shanghai, China). Decitabine (DAC, CAS No. A3656), valproic acid (VPA, CAS No. 99-66-1), and trichostatin A (TSA, CAS No. 58880-19-6) were purchased from Sigma-Aldrich Corporation (St. Louis, MO, USA). DAC and TSA were dissolved in DMSO to a concentration of 10 mM. Aliquots were stored at −80°C and diluted with media before being used. […]
The cytotoxic activity of MAGE-D4 peptide-specific CTLs to glioma cells was determined according to the instructions of the manufacturers by our published method ([31]). […] Four hours later, suspended cells were collected for CD107a flow cytometry, meanwhile, the supernatant was collected and analyzed with granzyme A and perforin ELISA kit (Cloud-Clone Corporation, Wuhan, China) at 450 nm, and the LDH kit (Promega, USA) at 490 nm. The percentage of specific lysis was calculated using the following formula: [(experimental release − spontaneous release)/(maximum release − spontaneous release)] × 100. […] Then, the cytotoxicity assay was measured and calculated as mentioned above.

T cells = assay: CFSE lymphocyte proliferation assay; conditions: T cells with peptide-pulsed DCs, 96 h, flow cytometry
Description: CFSE assay was used to further detect the proliferation of T cells stimulated by peptide-pulsed DCs. The cells were suspended at 10^6/ml with RPMI1640 and added CFSE (5 μM/ml), then incubated at room temperature for 20 min. Fetal bovine serum (FBS, Gbico, USA) was added and incubated for 5 min to terminate the reaction, washed with PBS twice. Then, the peptide-incubated DC was added, incubated for 96 h, and performed flow cytometry analysis.

U251 = assay: Granzyme A and perforin ELISA, T cells with U251; conditions: T cells incubated with DAC + TSA-treated U251, E:T 50:1, 4 h
Description: The human glioma cell lines (U87-MG and U251) were obtained from the Cell Bank of Type Culture Collection of the Chinese Academy of Science (Shanghai, China). […] A3656), valproic acid (VPA, CAS No. 99-66-1), and trichostatin A (TSA, CAS No. 58880-19-6) were purchased from Sigma-Aldrich Corporation (St. Louis, MO, USA). DAC and TSA were dissolved in DMSO to a concentration of 10 mM. Aliquots were stored at −80°C and diluted with media before being used. […] Four hours later, suspended cells were collected for CD107a flow cytometry, meanwhile, the supernatant was collected and analyzed with granzyme A and perforin ELISA kit (Cloud-Clone Corporation, Wuhan, China) at 450 nm, and the LDH kit (Promega, USA) at 490 nm. The percentage of specific lysis was calculated using the following formula: [(experimental release − spontaneous release)/(maximum release − spontaneous release)] × 100. […] Then, the cytotoxicity assay was measured and calculated as mentioned above.

CLPPPNVIL [Peptide P8] was tested, and the “cytotoxicity of peptide-specific T cells (specific lysis, LDH)” value (U87) was “higher cytotoxicity”, the “proliferation index (CFSE)” value (T cells; Figure 4B inset bottom left) was “highest” and the “percentage of cells that divided at least once (CFSE)” value (T cells; Figure 4B inset top left) was “highest”. For the same sequence, the “granzyme A and perforin secreted by T cells” value (U251) was “the most granzyme A and perforin”.
